Legend:
Assay type in all cases: in vivo, human
subjects with GBS [1] = assay: Motor strength on 0-5 ordinal scale, Phase I double-blind placebo controlled crossover study
Text: This was a Phase I double-blind, placebo controlled, crossover, dose escalating study in subjects with GBS similar to those proposed for MS and SCI. An initial trial of ten patients will be randomized to […] of the two treatment sequences (A or B) as shown below. The study population consists of subjects with GBS injury whose neurological status has been stable for at least eighteen months. Ten subjects will be enrolled. Motor strength was rated on the traditional 0-5 ordinal scale: 0—absent motor strength 1—trace motor strength 2—can move the specified joint but only with gravity eliminated 3—can move the joint against gravity but not against any opposing force 4—can move the joint against opposing force but the strength is not normal for the person or symmetrical 5—normal motor strength This scale was employed to measure the following motor strength for each of these joint motions on both the right and the left sides: hip flexion, hip adduction, hip abduction, knee flexion, knee extension, ankle dorsi-flexion, ankle plantar flexion, shoulder abduction, elbow extension, elbow flexion, wrist flexion, and wrist extension. [table]

subjects with GBS [2] = assay: Hand grip strength on hand dynamometer, same study; conditions: hand-held dynamometer; p=0.0243 paired Student's t-test; repeated measures ANOVA p=0.0715; FIG. 3
Procedure: This was a Phase I double-blind, placebo controlled, crossover, dose escalating study in subjects with GBS similar to those proposed for MS and SCI. An initial trial of ten patients will be randomized to […] of the two treatment sequences (A or B) as shown below. The study population consists of subjects with GBS injury whose neurological status has been stable for at least eighteen months. Ten subjects will be enrolled. Hand grip strength was measured on a hand dynamometer that had been calibrated. Each patient was given three trials separated by thirty second rest periods and the strongest of the three measurements was recorded for each hand. [table]

subjects with GBS [3] = assay: Serum laboratories drawn at start and every week of the study
Text: This was a Phase I double-blind, placebo controlled, crossover, dose escalating study in subjects with GBS similar to those proposed for MS and SCI. An initial trial of ten patients will be randomized to […] of the two treatment sequences (A or B) as shown below.
The study population consists of subjects with GBS injury whose neurological status has been stable for at least eighteen months. Ten subjects will be enrolled.
In addition, serum laboratories were drawn at the beginning of the study and every week of the study. The serum laboratories included glucose, blood urea nitrogen, creatinine, uric acid, calcium, total protein, albumin, phosphate, total bilirubin, cholesterol, LDH, SGOT/AST, alkaline phosphatase, hematocrit, hemoglobin, red blood cell count, platelet count, and white blood cell count with differential.

[4] = serum laboratory, before change
[5] = serum laboratory, statistically significant, not clinically significant

In the case of `Nc1ccncc1` [4-aminopyridine], the “Lower extremity strength, average motor score on the active medication” value (subjects with GBS [1]; 0-5 scale, 10-20 mg bid escalating, p<0.0001, Friedeman's, FIG. 1) is reported as 3.7, the “Upper extremity strength, average motor score after increase” value (subjects with GBS [1]; 0-5 scale, 10-20 mg bid escalating, p=0.0065, Friedeman's, FIG. 2) is reported as 3.7 and the “Upper extremity strength, average motor score, starting value” (subjects with GBS [1]; 0-5 scale, value before increase, FIG. 2) is reported as 3.2. For the same compound, the “Lower extremity strength, average motor score, starting value” (subjects with GBS [1]; 0-5 scale, value before increase, seven GBS patients, FIG. 1) was 3.2, the “Duration of neural biological effects after stopping the drug” value (subjects with GBS [1]; patients on active agent first, motor and grip strength continued to drop for up to two additional weeks after one week washout) was “more than two weeks” and the “Grip strength, start of study compared to after four weeks of treatment” value (subjects with GBS [2]) was “increased significantly”. For the same compound, the “Hematocrit, starting value” (subjects with GBS [3]; before change) was 42.7, the “All other laboratories, change while on the active agent” value (subjects with GBS [3]; glucose, BUN, creatinine, calcium, proteins, bilirubin, cholesterol, LDH, alkaline phosphatase, blood counts etc.) was “no significant change” and the “SGOT, starting value” (subjects with GBS [3]; [4]) was 25.1. For the same compound, the “Uric acid, starting value” (subjects with GBS [3]; [4]) was 6.4, the “SGOT, after change on the active agent” value (subjects with GBS [3]; [5]) was 27.9 and the “Uric acid, after change on the active agent” value (subjects with GBS [3]; [5]) was 6.5. For the same compound, the “Hematocrit, after change on the active agent” value (subjects with GBS [3]; statistically significant, not clinically significant) was 41.6.
